Biological target: Sulfolobus solfataricus Sso7d (rcSso7d, SEQ ID NO: 1) variant clone E, SEQ ID NO: 398 (Saccharolobus solfataricus, UniProt P61991, A45G/K22H/K28Q/K40A/K7T/K9Q/M29W/R43W/S31W/T33I/T41K/V26W/W24R)
Experiment: biolayer interferometry, clone E immobilized on Ni-NTA tip
Type: binding
Settings: 1 uM solution of the sugar; FIG. 2E
Excerpt: The traces show an increase in nm as sugar starts binding to protein on the tip, then a decrease in nm as the tip is moved from the sugar solution to buffer only.

Chain of Sulfolobus solfataricus Sso7d (rcSso7d, SEQ ID NO: 1) variant clone E, SEQ ID NO: 398 (P61991 other isoform, or with tags, fused parts or gaps with the stated changes): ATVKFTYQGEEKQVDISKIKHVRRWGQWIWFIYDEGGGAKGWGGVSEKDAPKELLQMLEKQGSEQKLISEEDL

## CC(=O)N[C@@H]1[C@@H](O[C@@H]2O[C@H](CO)[C@H](O)[C@H](O)[C@H]2O)[C@@H](O)[C@@H](CO)O[C@@H]1O [TF antigen, Galβ1-3GalNAcα]
  binding (biolayer interferometry traces): bound
